From US20260345609A1, “METHODS FOR PROMOTING PERSISTENCE OF CELL THERAPY” (Legend Biotech Ireland Limited, priority 2022, published 2026)

Legend:
[1] = tested on: host PBMC cells (HLA-A2+); assay: Effect of combination of fludarabine, cyclophosphamide and MTX on host immune cells (HLA-A2+) in peripheral blood; type: in vivo, NCG mice; human host cells; details: day 13
Description: pLVX-Puro vector purchased from Clontech was subjected to the digestion reaction of ClaI and EcoRI restriction enzymes. The CMV promoter was replaced with the human EF1α promoter (GenBank: J04617.1) to obtain the pLVX-hEF1α vector. The fusion gene sequence of SIV Nef_M116-P2A-DHFR L22F/F31S-IRES-CD8α SP-anti-BCMA antibody-CD8α Hinge-CD8αTM-4-1BB-ITAM010, hereinafter referred to as “LUCAR-BCMA” (SEQ ID NO: 6) was cloned into the expression plasmid pLVX-hEF1α to form the LUCAR-BCMA expression plasmid named as M1588. The anti-BCMA antibody contained herein has been disclosed in PCT/CN2020/136570. With reference to the virus vector production and primary T transduction in Example 1, LUCAR-BCMA cells were prepared.
Severely immunodeficient NCG mice were used for in vivo efficacy evaluation. The specific embodiment is as follows: at day-5.5 mice were intravenously inoculated with 20×10^6 PBMC cells (HLA-A2+) to construct host immune cells, and at day0 the mice were intravenously inoculated with 3×10^6 LUCAR-BCMA cells (HLA-A2−) as transplanted cells. The modeled mice were then treated with the following different combination of fludarabine, cyclophosphamide, and MTX to evaluate the inhibitory effect of the combination regimen on the host's immune system. “/” in Table 2 means no drug was administrated. The dose of fludarabine in each experimental group was 0.1623 mg/mice, the dose of cyclophosphamide was 1.623 mg/mice and the dose of MTX was 15.15 mg/kg (G3 and G4) or 75.45 mg/kg (G5 and G6). At day 13, the end point of the experiment, the peripheral blood white blood cells (WBC) of mice were measured. The peripheral blood cells of mice were resuspended in DPBS, and then 1 μL of FITC anti human CD45 (Biolegend, 304038) and 1 μL of PE anti human HLA-A2 (Biolegend, 343306) were added into the cell resuspension and incubated at 4° C. for 30 min. […] The proliferation of host PBMC cells in the peripheral blood of mice was evaluated, which reflected the effect of different combinations of drugs on host immunity in vivo.

[2] = tested on: untransduced T cells (UnT); assay: In vitro mixed lymphoid (MLR) model with LUCAR-20SD cells, UnT and Raji cells: host UnT cells; type: cell-based, human; details: 0.05 μM, 1 μM, 2 μM MTX
Method: To evaluate the ability of LUCAR-20SD cells to tolerate allogeneic T cell rejection, an in vitro mixed lymphoid (MLR) model was established.
Using the T cells from a random healthy donor (B donor), LUCAR-20SD cells were prepared following the method in Example 1, as the graft cells. Un-transduced T cells (UnT) from another random healthy donor (Adonor) were also prepared, as the host cells.
The cell density of CD20 positive cells (lymphoma cell lines Raji, ATCC, CCL-86) was adjusted to 1×10^6 cells/mL. Raji cells were treated with 20 μg/mL mitomycin at 37° C. for 3 h, washed three times with 10 mL DPBS, and were resuspended in the culture medium. 20×10^6 untransduced T cells (UnT, T cell donor A), 1×10^6 LUCAR-20SD cells (T cell donor B), and 5×10^6 treated lymphoma cells Raji were mixed and cultured in the medium. The cell mixture was divided into 4 groups, and 0 μM MTX, 0.05 μM MTX, 1 μM MTX, or 2 μM MTX was added, respectively. […] According to the formula: fold change of cell number (UnT)=[cell number counted by AOPI×(CAR-CD5+%)]/20, fold change of cell number (LUCAR-20SD cells)=[cell number counted by AOPI×(CAR+CD5+%)]/1, the cell proliferation curves of UnT and LUCAR-20SD cells were plotted.

CN(Cc1cnc2nc(N)nc(N)c2n1)c1ccc(C(=O)N[C@@H](CCC(=O)O)C(=O)O)cc1 [MTX, methotrexate]
inhibitory effect of MTX on the host immune cells, dose relation ([1]; 15.15 mg/kg (G3) vs 75.45 mg/kg (G5)): dose-dependent | inhibitory effect on proliferation of host cells ([1]; FC regimen or MTX alone): the inhibitory effect was limited | number of host cells in the peripheral blood compared with G1 blank group ([1]; G2: FC, G3: 15.15 mg/kg MTX, G5: 75.45 mg/kg MTX): lower than that of the G1 blank group | fold change of cell number (UnT) ([2]; day 1 to day 13): less than 1 | proliferation of UnT cells ([2]; mixed culture with LUCAR-20SD and Raji cells): significantly inhibited
